≈ marks a conversion by molar mass, not a printed value.
Legend:
Experiment in all cases: Bacterial growth minimal inhibitory concentration (microdilution, cation-adjusted Mueller-Hinton Broth)
S. aureus A798 = format: cell-based, Staphylococcus aureus; details: Staphylococcus aureus, A798; multiply-resistant strain (methicillin- and quinolone-resistant)
Summary of the method: (§1)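 Broth microdilution in cation-adjusted Mueller-Hinton Broth per CLSI M7-A7; MICs in mg/L. S. aureus A798 is methicillin- and quinolone-resistant, K. pneumoniae T6474 penicillin-, cephalosporin- and quinolone-resistant; E. coli ATCC25922 and P. aeruginosa ATCC 27853 are quinolone-sensitive.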

E. coli ATCC25922 = format: cell-based; details: Escherichia coli, ATCC25922; quinolone-sensitive strain
Summary of the method: as §1

K. pneumoniae T6474 = format: cell-based, Klebsiella pneumoniae; details: Klebsiella pneumoniae, T6474; multiply-resistant strain (penicillin-, cephalosporin- and quinolone-resistant)
Summary of the method: as §1

P. aeruginosa ATCC 27853 = format: cell-based, Pseudomonas aeruginosa; details: Pseudomonas aeruginosa, ATCC27853; quinolone-sensitive strain
Summary of the method: as §1

Structure (SMILES) | MIC (S. aureus A798) | MIC (E. coli ATCC25922) | MIC (K. pneumoniae T6474) | MIC (P. aeruginosa ATCC 27853)
O=C1COc2ccc(N3C[C@H](CCNCc4cccc(-c5cc(O[C@@H]6CCNC6)cnn5)c4)OC3=O)nc2N1 [Example $180, 6-[(S)-2-oxo-5-(2-{3-[5-((R)-pyrrolidin-3-yloxy)-pyridazin-3-yl]-benzylamino}-ethyl)-oxazolidin-3-yl]-4H-pyrido[3,2-b][1,4]oxazin-3-one] | > 16 µg/mL | 16 µg/mL (≈ 30.1 µM) | > 16 µg/mL | 4 µg/mL (≈ 7.52 µM)
CN1CC(Oc2cccc(-c3cccc(CNCC[C@H]4CN(c5ccc6c(n5)NC(=O)CO6)C(=O)O4)n3)n2)C1 [Example $188, 6-[(S)-5-(2-{[6′-(1-methyl-azetidin-3-yloxy)-[2,2′]bipyridinyl-6-ylmethyl]-amino}-ethyl)-2-oxo-oxazolidin-3-yl]-4H-pyrido[3,2-b][1,4]oxazin-3-one] | 1 µg/mL (≈ 1.88 µM) | 1 µg/mL (≈ 1.88 µM) | 2 µg/mL (≈ 3.76 µM) | 4 µg/mL (≈ 7.52 µM)
O=C1COc2ccc(N3C[C@H](CCNCc4cccc(-c5cccc(OC[C@@H]6CCCN6)c5)c4)OC3=O)nc2N1 [Example $102, 6-((S)-2-oxo-5-(2-(((3′-(((S)-pyrrolidin-2-yl)methoxy)-[1,1′-biphenyl]-3-yl)methyl)amino)ethyl)oxazolidin-3-yl)-2H-pyrido[3,2-b][1,4]oxazin-3(4H)-one] | 2 µg/mL (≈ 3.68 µM) | 1 µg/mL (≈ 1.84 µM) | 2 µg/mL (≈ 3.68 µM) | 2 µg/mL (≈ 3.68 µM)
NCCOc1cncc(-c2cccc(CNCC[C@H]3CN(c4ccc5c(n4)NC(=O)CO5)C(=O)O3)c2)c1 [Example 11, 6-[(S)-5-(2-{3-[5-(2-amino-ethoxy)-pyridin-3-yl]-benzylamino}-ethyl)-2-oxo-oxazolidin-3-yl]-4H-pyrido[3,2-b][1,4]oxazin-3-one] | 2 µg/mL (≈ 3.96 µM) | 2 µg/mL (≈ 3.96 µM) | 4 µg/mL (≈ 7.93 µM) | 1 µg/mL (≈ 1.98 µM)
O=C1COc2ccc(N3C[C@H](CCNCc4cccc(-c5cccc(OCC6CNC6)n5)c4)OC3=O)nc2N1 [Example $106, 6-[(S)-5-(2-{3-[6-(azetidin-3-ylmethoxy)-pyridin-2-yl]-benzylamino}-ethyl)-2-oxo-oxazolidin-3-yl]-4H-pyrido[3,2-b][1,4]oxazin-3-one] | 2 µg/mL (≈ 3.77 µM) | 2 µg/mL (≈ 3.77 µM) | 4 µg/mL (≈ 7.54 µM) | 1 µg/mL (≈ 1.88 µM)
O=C1COc2ccc(N3C[C@H](CCNCc4cccc(-c5cccc(OC6CCNC6)c5)c4)OC3=O)nc2N1 (mixture of isomers) [Example $103, 6-[(S)-2-oxo-5-(2-{[3′-((RS)-pyrrolidin-3-yloxy)-biphenyl-3-ylmethyl]-amino}-ethyl)-oxazolidin-3-yl]-4H-pyrido[3,2-b][1,4]oxazin-3-one] | 2 µg/mL | 1 µg/mL | 1 µg/mL | 1 µg/mL
CN1CC[C@H](Oc2cncc(-c3cc(CNCC[C@H]4CN(c5ccc6c(n5)NC(=O)CO6)C(=O)O4)ccn3)n2)C1 [Example $147, 6-{(S)-5-[2-({2-[6-((S)-1-methyl-pyrrolidin-3-yloxy)-pyrazin-2-yl]-pyridin-4-ylmethyl}-amino)-ethyl]-2-oxo-oxazolidin-3-yl}-4H-pyrido[3,2-b][1,4]oxazin-3-one] | 1 µg/mL (≈ 1.83 µM) | 1 µg/mL (≈ 1.83 µM) | 1 µg/mL (≈ 1.83 µM) | 4 µg/mL (≈ 7.32 µM)
O=C1COc2ccc(N3C[C@H](CCNCc4cccc(-c5cccc(OC[C@@H]6CCN6)c5)c4)OC3=O)nc2N1 [Example $101, 6-[(S)-5-(2-{[3′-((S)-1-azetidin-2-ylmethoxy)-biphenyl-3-ylmethyl]-amino}-ethyl)-2-oxo-oxazolidin-3-yl]-4H-pyrido[3,2-b][1,4]oxazin-3-one] | 2 µg/mL (≈ 3.78 µM) | 1 µg/mL (≈ 1.89 µM) | 2 µg/mL (≈ 3.78 µM) | 1 µg/mL (≈ 1.89 µM)
CN1CC[C@H](Oc2cncc(-c3ccnc(CNCC[C@H]4CN(c5ccc6c(n5)NC(=O)CO6)C(=O)O4)c3)n2)C1 [Example $148, 6-{(S)-5-[2-({4-[6-((S)-1-methyl-pyrrolidin-3-yloxy)-pyrazin-2-yl]-pyridin-2-ylmethyl}-amino)-ethyl]-2-oxo-oxazolidin-3-yl}-4H-pyrido[3,2-b][1,4]oxazin-3-one] | 1 µg/mL (≈ 1.83 µM) | 1 µg/mL (≈ 1.83 µM) | 1 µg/mL (≈ 1.83 µM) | 1 µg/mL (≈ 1.83 µM)
CN1CC(COc2cccc(-c3cccc(CNCC[C@H]4CN(c5ccc6c(n5)NC(=O)CO6)C(=O)O4)c3)n2)C1 [Example $113, 6-[(S)-5-(2-{3-[6-(1-methyl-azetidin-3-ylmethoxy)-pyridin-2-yl]-benzylamino}-ethyl)-2-oxo-oxazolidin-3-yl]-4H-pyrido[3,2-b][1,4]oxazin-3-one] | 0.5 µg/mL (≈ 0.918 µM) | 2 µg/mL (≈ 3.67 µM) | 2 µg/mL (≈ 3.67 µM) | 2 µg/mL (≈ 3.67 µM)
CN1CC[C@H](Oc2cccc(-c3cncc(CNCC[C@H]4CN(c5ccc6c(n5)NC(=O)CO6)C(=O)O4)c3)n2)C1 [Example $138, 6-[(S)-5-(2-{[6-((S)-1-methyl-pyrrolidin-3-yloxy)-[2,3′]bipyridinyl-5′-ylmethyl]-amino}-ethyl)-2-oxo-oxazolidin-3-yl]-4H-pyrido[3,2-b][1,4]oxazin-3-one] | 2 µg/mL (≈ 3.67 µM) | 1 µg/mL (≈ 1.83 µM) | 2 µg/mL (≈ 3.67 µM) | 2 µg/mL (≈ 3.67 µM)
C[C@H](N)COc1cccc(-c2cccc(CNCC[C@H]3CN(c4ccc5c(n4)NC(=O)CO5)C(=O)O3)c2)n1 [Example 18, 6-[(S)-5-(2-{3-[6-((S)-2-amino-propoxy)-pyridin-2-yl]-benzylamino}-ethyl)-2-oxo-oxazolidin-3-yl]-4H-pyrido[3,2-b][1,4]oxazin-3-one] | 0.5 µg/mL (≈ 0.964 µM) | 1 µg/mL (≈ 1.93 µM) | 2 µg/mL (≈ 3.86 µM) | 1 µg/mL (≈ 1.93 µM)

Next, values leading:

MIC (S. aureus A798) | MIC (E. coli ATCC25922) | MIC (K. pneumoniae T6474) | MIC (P. aeruginosa ATCC 27853) | Structure (SMILES)
0.5 µg/mL (≈ 0.916 µM) | 1 µg/mL (≈ 1.83 µM) | 1 µg/mL (≈ 1.83 µM) | 1 µg/mL (≈ 1.83 µM) | CN1CC[C@H](Oc2ccnc(-c3cccc(CNCC[C@H]4CN(c5ccc6c(n5)NC(=O)CO6)C(=O)O4)c3)n2)C1 [Example $137, 6-[(S)-5-(2-{3-[4-((S)-1-methyl-pyrrolidin-3-yloxy)-pyrimidin-2-yl]-benzylamino}-ethyl)-2-oxo-oxazolidin-3-yl]-4H-pyrido[3,2-b][1,4]oxazin-3-one]
0.5 µg/mL (≈ 0.989 µM) | 1 µg/mL (≈ 1.98 µM) | 2 µg/mL (≈ 3.96 µM) | 1 µg/mL (≈ 1.98 µM) | NCCOc1cncc(-c2cccc(CNCC[C@H]3CN(c4ccc5c(n4)NC(=O)CO5)C(=O)O3)c2)n1 [Example 15, 6-[(S)-5-(2-{3-[6-(2-amino-ethoxy)-pyrazin-2-yl]-benzylamino}-ethyl)-2-oxo-oxazolidin-3-yl]-4H-pyrido[3,2-b][1,4]oxazin-3-one]
0.5 µg/mL | 1 µg/mL | 2 µg/mL | 2 µg/mL | CCN1CCC(Oc2cccc(-c3cccc(CNCC[C@H]4CN(c5ccc6c(n5)NC(=O)CO6)C(=O)O4)c3)n2)C1 (mixture of isomers) [Example $126, 6-[(S)-5-(2-{3-[6-((RS)-1-ethyl-pyrrolidin-3-yloxy)-pyridin-2-yl]-benzylamino}-ethyl)-2-oxo-oxazolidin-3-yl]-4H-pyrido[3,2-b][1,4]oxazin-3-one]
0.25 µg/mL (≈ 0.435 µM) | 2 µg/mL (≈ 3.48 µM) | 4 µg/mL (≈ 6.96 µM) | 2 µg/mL (≈ 3.48 µM) | COc1cc(O[C@H]2CCN(C)C2)cc(-c2cccc(CNCC[C@H]3CN(c4ccc5c(n4)NC(=O)CO5)C(=O)O3)c2)n1 [Example $170, 6-[(S)-5-(2-{3-[6-methoxy-4-((S)-1-methyl-pyrrolidin-3-yloxy)-pyridin-2-yl]-benzylamino}-ethyl)-2-oxo-oxazolidin-3-yl]-4H-pyrido[3,2-b][1,4]oxazin-3-one]
0.125 µg/mL (≈ 0.224 µM) | 2 µg/mL (≈ 3.58 µM) | 1 µg/mL (≈ 1.79 µM) | 2 µg/mL (≈ 3.58 µM) | O=C1COc2ccc(N3C[C@H](CCNCc4cccc(-c5cccc(OCCN6CCCC6)n5)c4)OC3=O)nc2N1 [Example 9, 6-[(S)-2-oxo-5-(2-{3-[6-(2-pyrrolidin-1-yl-ethoxy)-pyridin-2-yl]-benzylamino}-ethyl)-oxazolidin-3-yl]-4H-pyrido[3,2-b][1,4]oxazin-3-one]
0.25 µg/mL (≈ 0.459 µM) | 0.5 µg/mL (≈ 0.918 µM) | 1 µg/mL (≈ 1.84 µM) | 0.5 µg/mL (≈ 0.918 µM) | C[C@H]1C[C@H](Oc2cccc(-c3cccc(CNCC[C@H]4CN(c5ccc6c(n5)NC(=O)CO6)C(=O)O4)c3)n2)CN1 [Example $131, 6-[(S)-5-(2-{3-[6-((3S,5S)-5-methyl-pyrrolidin-3-yloxy)-pyridin-2-yl]-benzylamino}-ethyl)-2-oxo-oxazolidin-3-yl]-4H-pyrido[3,2-b][1,4]oxazin-3-one]
0.5 µg/mL (≈ 0.915 µM) | 2 µg/mL (≈ 3.66 µM) | 8 µg/mL (≈ 14.6 µM) | 2 µg/mL (≈ 3.66 µM) | NCCCCCOc1cccc(-c2cccc(CNCC[C@H]3CN(c4ccc5c(n4)NC(=O)CO5)C(=O)O3)c2)n1 [Example 20, 6-[(S)-5-(2-{3-[6-(5-amino-pentyloxy)-pyridin-2-yl]-benzylamino}-ethyl)-2-oxo-oxazolidin-3-yl]-4H-pyrido[3,2-b][1,4]oxazin-3-one]
0.25 µg/mL (≈ 0.495 µM) | 0.5 µg/mL (≈ 0.991 µM) | 1 µg/mL (≈ 1.98 µM) | 0.25 µg/mL (≈ 0.495 µM) | NCCOc1cccc(-c2cccc(CNCC[C@H]3CN(c4ccc5c(n4)NC(=O)CO5)C(=O)O3)c2)n1 [Example 8, 6-[(S)-5-(2-{3-[6-(2-amino-ethoxy)-pyridin-2-yl]-benzylamino}-ethyl)-2-oxo-oxazolidin-3-yl]-4H-pyrido[3,2-b][1,4]oxazin-3-one]
0.5 µg/mL (≈ 0.942 µM) | 1 µg/mL (≈ 1.88 µM) | 1 µg/mL (≈ 1.88 µM) | 0.5 µg/mL (≈ 0.942 µM) | O=C1COc2ccc(N3C[C@H](CCNCc4cccc(-c5cccc(O[C@H]6CCNC6)n5)c4)OC3=O)nc2N1 [Example $119, 6-[(S)-2-oxo-5-(2-{3-[6-((S)-pyrrolidin-3-yloxy)-pyridin-2-yl]-benzylamino}-ethyl)-oxazolidin-3-yl]-4H-pyrido[3,2-b][1,4]oxazin-3-one]
